From US10131649B2, “Bicyclic compounds as pest control agents” (BAYER CROPSCIENCE AKTIENGESELLSCHAFT, priority 2014, dated 2018)
Read-outs that look alike come from different tables or passages of the source.

Key:
[1] = tested on: green peach aphid (Myzus persicae); assay: Myzus persicae spray test (Chinese cabbage leaf discs); format: in vivo; settings: foliar, 144 h, read-out: efficacy in %
Experimental: Myzus persicae—Spray Test
Solvent: • 78 parts by weight of acetone • 1.5 parts by weight of dimethylformamide
Emulsifier: alkylaryl polyglycol ether
To produce a suitable preparation of active compound, 1 part by weight of active compound is dissolved using the specified parts by weight of solvent and made up with water containing an emulsifier concentration of 1000 ppm until the desired concentration is attained. To produce further test concentrations, the formulation is diluted with emulsifier-containing water.
Discs of Chinese cabbage leaves (Brassica pekinensis) infested by all stages of the green peach aphid (Myzus persicae) are sprayed with an active compound formulation of the desired concentration.
After 6 days, the efficacy in % is determined. 100% means that all the aphids have been killed; 0% means that no aphids have been killed.

[2] = log P by HPLC on reversed-phase columns (OECD Guideline 117), [a] acidic pH 2.7, [b] neutral pH 7.8; format: physicochemical; settings: reversed-phase (C18) HPLC column
Experimental: The log P values were determined in accordance with OECD Guideline 117 (EC Directive 92/69/EEC) by HPLC (high-performance liquid chromatography) using reversed-phase (RP) columns (C18), by the following methods:
[a] The LC-MS determination in the acidic range is carried out at pH 2.7 with 0.1% aqueous formic acid and acetonitrile (contains 0.1% formic acid) as eluents; linear gradient from 10% acetonitrile to 95% acetonitrile.
[b] LC-MS determination in the neutral range is effected at pH 7.8 with 0.001 molar aqueous ammonium hydrogencarbonate solution and acetonitrile as eluents; linear gradient from 10% acetonitrile to 95% acetonitrile.
Calibration is carried out using unbranched alkan-2-ones (having 3 to 16 carbon atoms) with known log P values (log P values determined on the basis of the retention times by linear interpolation between two successive alkanones).

[3] = tested on: nematode larvae (Cooperia curticei); assay: Cooperia curticei test; format: in vivo; settings: application rate 20 ppm; after 5 days; 100% = all larvae killed
Experimental: Solvent: dimethyl sulphoxide
To produce a suitable preparation of active compound, 10 mg of active compound are mixed with 0.5 ml of dimethyl sulfoxide and the concentrate is diluted with “Ringer's solution” to the desired concentration.
Vessels containing the active compound preparation of the desired concentration are populated with about 40 nematode larvae (Cooperia curticei).
After 5 days, the kill in % is determined. 100% means that all the larvae have been killed; 0% means that none of the larvae have been killed.

[4] = acidic pH 2.7, read-out: logP[a]
[5] = neutral pH 7.8, read-out: logP[b]

Cc1cc(F)c(-c2ccc3nn(-c4cccnc4)cc3c2)cc1SCC(F)(F)F [Example 49, 5-[2-Fluoro-4-methyl-5-(2,2,2-trifluoroethylsulphanyl)phenyl]-2-(3-pyridyl)indazole]
pest or weed control at 500 g/ha [1]: 90%
chromatographic logP [2, 4]: 4.23
chromatographic logP [2, 5]: 4.11

Cc1ccc(-c2ccc3nn(-c4cccnc4)cc3c2)cc1SCC(F)(F)F [Example 50, 5-[4-Methyl-3-(2,2,2-trifluoroethylsulphanyl)phenyl]-2-(3-pyridyl)indazole]
pest or weed control at 500 g/ha [1]: 100%
chromatographic logP [2, 4]: 4.12
chromatographic logP [2, 5]: 4.07

Cc1ccc(-c2ccc3nn(-c4cccnc4)cc3c2)cc1[S+]([O-])CC(F)(F)F (stereo not shown) [Example 53, 5-[4-Methyl-3-(2,2,2-trifluoroethylsulphinyl)phenyl]-2-(3-pyridyl)indazole]
pest or weed control at 500 g/ha [1]: 90%
chromatographic logP [2, 4]: 2.72
chromatographic logP [2, 5]: 2.68

Cc1cc(C)c([S+]([O-])CC(F)(F)F)cc1-c1ccc2nn(-c3cccnc3)cc2c1 (stereo not shown) [Example 54, 5-[2,4-Dimethyl-5-(2,2,2-trifluoroethylsulphinyl)phenyl]-2-(3-pyridyl)indazole]
pest or weed control at 500 g/ha [1]: 90%
chromatographic logP [2, 4]: 2.99
chromatographic logP [2, 5]: 2.92

FC(F)(F)c1cnn(-c2ccc3nn(-c4cccnc4)cc3c2)c1 [Example 55, 2-(3-Pyridyl)-5-[4-(trifluoromethyl)pyrazol-1-yl]indazole]
pest or weed control at 500 g/ha [1]: 90%
chromatographic logP [2, 4]: 2.77
chromatographic logP [2, 5]: 2.74

FC(F)(F)c1ccn(-c2ccc3nn(-c4cccnc4)cc3c2)n1 [Example 56, 2-(3-Pyridyl)-5-[3-(trifluoromethyl)pyrazol-1-yl]indazole]
pest or weed control at 500 g/ha [1]: 90%
chromatographic logP [2, 4]: 2.83
chromatographic logP [2, 5]: 2.79
efficacy (kill in %) [3]: 90%

c1cncc(-c2ccc3nn(-c4cccnc4)cc3c2)c1 [Example 57, 2,5-Bis(3-pyridyl)indazole]
pest or weed control at 500 g/ha [1]: 90%
chromatographic logP [2, 4]: 0.88
chromatographic logP [2, 5]: 1.71
efficacy (kill in %) [3]: 80%

Cn1cc(-c2ccc3nn(-c4cccnc4)cc3c2)cn1 [Example 58, 5-(1-Methylpyrazol-4-yl)-2-(3-pyridyl)indazole]
pest or weed control at 500 g/ha [1]: 90%
chromatographic logP [2, 4]: 1.51
chromatographic logP [2, 5]: 1.57

c1ccc(-c2ccc3nn(-c4cccnc4)cc3c2)nc1 [Example 59, 5-(2-Pyridyl)-2-(3-pyridyl)indazole]
pest or weed control at 100 g/ha [1]: 90%
chromatographic logP [2, 4]: 1.13
chromatographic logP [2, 5]: 1.93

c1cnc(-c2ccc3nn(-c4cccnc4)cc3c2)nc1 [Example 60, 2-(3-Pyridyl)-5-pyrimidin-2-yl-indazole]
pest or weed control at 500 g/ha [1]: 90%
chromatographic logP [2, 4]: 1.72
chromatographic logP [2, 5]: 1.73

Clc1cccc(-c2ccc3nn(-c4cccnc4)cc3c2)n1 [Example 61]
pest or weed control at 500 g/ha [1]: 100%
chromatographic logP [2, 4]: 2.79
chromatographic logP [2, 5]: 2.8

CSCn1ccc(-c2ccc3nn(-c4cccnc4)cc3c2)n1 [Example 62]
pest or weed control at 500 g/ha [1]: 90%
chromatographic logP [2, 4]: 1.97
chromatographic logP [2, 5]: 2.11

CSCn1cc(-c2ccc3nn(-c4cccnc4)cc3c2)cn1 [Example 63]
pest or weed control at 500 g/ha [1]: 90%
chromatographic logP [2, 4]: 2.02

Cc1cccc(-c2ccc3nn(-c4cccnc4)cc3c2)n1 [Example 64]
pest or weed control at 500 g/ha [1]: 90%
chromatographic logP [2, 4]: 1.06
chromatographic logP [2, 5]: 2.41

Cc1ccnc(-c2ccc3nn(-c4cccnc4)cc3c2)c1 [Example 66]
pest or weed control at 500 g/ha [1]: 90%
chromatographic logP [2, 4]: 0.97
chromatographic logP [2, 5]: 2.2

Clc1cccnc1-c1ccc2nn(-c3cccnc3)cc2c1 [Example 68]
pest or weed control at 500 g/ha [1]: 100%
chromatographic logP [2, 4]: 2.17
chromatographic logP [2, 5]: 2.21

Clc1ccnc(-c2ccc3nn(-c4cccnc4)cc3c2)c1 [Example 69]
pest or weed control at 500 g/ha [1]: 100%
chromatographic logP [2, 4]: 2.62
chromatographic logP [2, 5]: 2.66

Cn1ccc(-c2ccc3nn(-c4cccnc4)cc3c2)n1 [Example 71]
pest or weed control at 500 g/ha [1]: 90%
chromatographic logP [2, 4]: 1.58

CCn1cc(-c2ccc3nn(-c4cccnc4)cc3c2)cn1 [Example 73]
pest or weed control at 500 g/ha [1]: 90%
chromatographic logP [2, 4]: 1.81
chromatographic logP [2, 5]: 1.82

C[S+]([O-])Cn1cc(-c2ccc3nn(-c4cccnc4)cc3c2)cn1 (stereo not shown) [Example 74]
pest or weed control at 500 g/ha [1]: 100%
chromatographic logP [2, 4]: 1.17
chromatographic logP [2, 5]: 1.19

CN(C(=O)c1ccc2nn(-c3cccnc3)cc2c1)C1CC1 [Example 75, N-Cyclopropyl-N-methyl-2-(pyridin-3-yl)-2H-indazole-5-carboxamide]
pest or weed control at 500 g/ha [1]: 90%
chromatographic logP [2, 4]: 1.47
chromatographic logP [2, 5]: 1.5

CCSc1ccnc(-c2ccc3nn(-c4cccnc4)cc3c2)c1 [Example 76, 5-[4-(Ethylsulphanyl)pyridin-2-yl]-2-(pyridin-3-yl)-2H-indazole]
pest or weed control at 500 g/ha [1]: 90%
chromatographic logP [2, 4]: 1.62
chromatographic logP [2, 5]: 2.84
efficacy (kill in %) [3]: 80%

CCSc1cccnc1-c1ccc2nn(-c3cccnc3)cc2c1 [Example 77]
pest or weed control at 500 g/ha [1]: 90%
chromatographic logP [2, 4]: 2.53
chromatographic logP [2, 5]: 1.93

CCSc1cccc(-c2ccc3nn(-c4cccnc4)cc3c2)n1 [Example 79]
pest or weed control at 500 g/ha [1]: 100%
chromatographic logP [2, 4]: 3.57
chromatographic logP [2, 5]: 3.57

CCSc1ccc(-c2ccc3nn(-c4cccnc4)cc3c2)nc1 [Example 80]
pest or weed control at 500 g/ha [1]: 100%
chromatographic logP [2, 4]: 2.87
chromatographic logP [2, 5]: 3.03

Cc1cc(C)c(SCC(F)(F)F)cc1NC(=O)c1ccc2nn(-c3cccnc3)cc2c1 [Example 81, N-{2,4-Dimethyl-5-[(2,2,2-trifluoroethyl)sulphanyl]phenyl}-2-(pyridin-3-yl)-2H-indazole-5-carboxamide]
pest or weed control at 500 g/ha [1]: 90%
chromatographic logP [2, 4]: 3.15
chromatographic logP [2, 5]: 3.12

Cc1ccc(NC(=O)c2ccc3nn(-c4cccnc4)cc3c2)cc1SCC(F)(F)F [Example 82]
pest or weed control at 500 g/ha [1]: 90%
chromatographic logP [2, 4]: 3.22
chromatographic logP [2, 5]: 3.15

CSCCNC(=O)c1ccc2nn(-c3cccnc3)cc2c1 [Example 85]
pest or weed control at 500 g/ha [1]: 90%
chromatographic logP [2, 4]: 1.45
chromatographic logP [2, 5]: 1.5

CN(CC(F)F)C(=O)c1ccc2nn(-c3cccnc3)cc2c1 [Example 86]
pest or weed control at 500 g/ha [1]: 100%
chromatographic logP [2, 4]: 1.55
chromatographic logP [2, 5]: 1.55

O=C(c1ccc2nn(-c3cccnc3)cc2c1)N1CCOCC1 [Example 87]
pest or weed control at 500 g/ha [1]: 100%
chromatographic logP [2, 4]: 1.14
chromatographic logP [2, 5]: 1.16

O=C(c1ccc2nn(-c3cccnc3)cc2c1)N1CCCC1 [Example 88]
pest or weed control at 500 g/ha [1]: 100%
chromatographic logP [2, 4]: 1.43
chromatographic logP [2, 5]: 1.48

CCN(CC)C(=O)c1ccc2nn(-c3cccnc3)cc2c1 [Example 89]
pest or weed control at 500 g/ha [1]: 100%
chromatographic logP [2, 4]: 1.63
chromatographic logP [2, 5]: 1.65

CN(CC(F)(F)F)C(=O)c1ccc2nn(-c3cccnc3)cc2c1 [Example 90]
pest or weed control at 500 g/ha [1]: 90%
chromatographic logP [2, 4]: 1.84
chromatographic logP [2, 5]: 1.87

Cc1cc(F)c(NC(=O)c2ccc3nn(-c4cccnc4)cc3c2)cc1SCC(F)(F)F [Example 91]
pest or weed control at 100 g/ha [1]: 90%
chromatographic logP [2, 4]: 3.22
chromatographic logP [2, 5]: 3.12

O=C(c1ccc2nn(-c3cccnc3)cc2c1)N1CCSCC1 [Example 92]
pest or weed control at 500 g/ha [1]: 100%
chromatographic logP [2, 4]: 1.5
chromatographic logP [2, 5]: 1.58

Cc1ccc(NC(=O)c2ccc3nn(-c4cccnc4)cc3c2)cc1[S+]([O-])CC(F)(F)F (stereo not shown) [Example 94, N-{4-Methyl-3-[(2,2,2-trifluoroethyl)sulphinyl]phenyl}-2-(pyridin-3-yl)-2H-indazole-5-carboxamide]
pest or weed control at 500 g/ha [1]: 90%
chromatographic logP [2, 4]: 2.23
chromatographic logP [2, 5]: 2.23

CS(=O)(=O)CCNC(=O)c1ccc2nn(-c3cccnc3)cc2c1 [Example 95]
pest or weed control at 500 g/ha [1]: 90%
chromatographic logP [2, 4]: 0.9
chromatographic logP [2, 5]: 0.95

Cc1cc(F)c(NC(=O)c2ccc3nn(-c4cccnc4)cc3c2)cc1[S+]([O-])CC(F)(F)F (stereo not shown) [Example 96]
pest or weed control at 500 g/ha [1]: 100%
chromatographic logP [2, 4]: 2.19
chromatographic logP [2, 5]: 2.14

Cc1cc(C)c([S+]([O-])CC(F)(F)F)cc1NC(=O)c1ccc2nn(-c3cccnc3)cc2c1 (stereo not shown) [Example 97]
pest or weed control at 500 g/ha [1]: 100%
chromatographic logP [2, 4]: 2.2
chromatographic logP [2, 5]: 2.22

Fc1ccnc(-c2ccc3nn(-c4cccnc4)cc3c2)c1 [Example 101]
pest or weed control at 500 g/ha [1]: 90%
chromatographic logP [2, 4]: 2.04
chromatographic logP [2, 5]: 2.21
